Patent US12161631B2, “Liquid pharmaceutical formulation” (PROJECT PHARMACEUTICS GMBH, priority 2018, dated 2024)
Where two headings read alike, the source gives them in different places.

Experiments:
[1] = formulation CaCl2 99.9 mg | PG ad 1000 mg
Procedure: The purity of Bendamustine hydrochloride and quantity was determined as follows using a standard curve: • Column type: C18, 100×4.6 mm, 2.6 μm • Mobile phase: A: Water/ACN/TFA=950/50/1 v/v/v • B: Water/ACN/TFA=50/950/1 v/v/v • Column temperature: 25° C. • Autosampler temperature: 25° C. • Flow rate: 1.2 mL/min • Detection wavelength: 234 nm HPLC Gradient
To serve as a direct reference, Bendamustine-HCl was also included in the study.
The following compositions were prepared, filled into type 1 glass vials, closed with a rubber stopper and crimp caped. The closed vials were stored at a temperature of 40° C.
At defined time points samples were taken and analyzed be mans of the RP-HPLC method described in Example 1.

[2] = Stabilizer solubility study (Example 2); type: physicochemical; conditions: dissolved at 40° C., stored at 2° C.-5° C. over-night
Procedure: The solubility of potential stabilizers to be tested for Bendamustine-HCl liquid formulation was evaluated in polypropylene glycol. The respective chemical was dissolved in water under continuous stirring at 40° C.

[3] = Dose dependent stabilization effect of calcium chloride in PEG400 (Example 8), purity and content by RP-HPLC; conditions: PEG400/PG and PEG400/ethanol solvent mixtures; 40° C., 8 weeks
Procedure: The organic solvent systems PEG400 with a small amount of alcoholic solvents 1,2-propanediol or ethanol (10% w/w) are to be investigated.
The following Bendamustine containing compositions were prepared. […] The preparations were filled into type 1 glass vials and stoppered with nitrogen overlay. The closed vials were stored at 40° C.:
The purity of Bendamustine-HCl was assessed via RP-HPLC and expressed by relative main peak area. Measurements were carried out in duplicate.
The content of Bendamustine-HCl was assessed via RP-HPLC using a 25 mg/g Bendamustine-HCl standard as reference. Standard solutions were freshly prepared for each individual sampling time point. Standard curves were recorded in duplicate at the beginning and at the end of each sequence. Samples were analyzed in duplicate.

[4] = type: physicochemical; conditions: in propylene glycol and in PEG400/PG solvent mixture
Procedure: The following Bendamustine containing compositions (25 mg Bendamustine/HCl in 4 g solution) were prepared, filled into type 1 glass vials.

Structure (SMILES)	Purity at 40° C. as relative main peak area [%] by RP-HPLC ([1]; 0 days) [%]	Purity at 40° C. as relative main peak area [%] by RP-HPLC ([1]; 7 days) [%]	Purity at 40° C. as relative main peak area [%] by RP-HPLC ([1]; 14 days) [%]	Purity at 40° C. as relative main peak area [%] by RP-HPLC ([1]; 28 days) [%]	Rel. content at 40° C. determined by RP-HPLC using a calibration curve ([1]; 0 days (ref. T=0)) [%]	Rel. content at 40° C. determined by RP-HPLC using a calibration curve ([1]; 7 days (ref. T=0)) [%]	Rel. content at 40° C. determined by RP-HPLC using a calibration curve ([1]; 14 days (ref. T=0)) [%]	Rel. content at 40° C. determined by RP-HPLC using a calibration curve ([1]; 28 days (ref. T=0)) [%]	other results
Nc1ncn([C@@H]2O[C@H](CO)[C@@H](O)[C@H]2O)c(=O)n1 [Azacitidine]	100	99.8	97.7	0.0					
Cn1c(CCCC(=O)O)nc2cc(N(CCCl)CCCl)ccc21 [Bendamustine]	99.7	98.9	98.4		100	98.9	98.4	95.3	
[Br-].[Br-].[Ca+2] [CaBr2]									Outcome (stabilizer solubility) ([2]; target concentration 0.9 mol/kg): Complete dissolution
[Ca+2].[Cl-].[Cl-] [CaCl2, calcium chloride]									stabilizing effect on Bendamustine (discussion, in words) [3]: clear dose depending stabilizing effect
O=NN(CCCl)C(=O)NCCCl [Carmustine]	95.8	2.1	2.0	1.9	100	3.6	1.3	1.3	
C[N+](C)(C)CCO.[Cl-] [Choline-HCl, choline chloride]									Outcome (stabilizer solubility) ([2]; target concentration 1.8 mol/kg): Complete dissolution
CC(=O)[O-].[K+] [KAc]									stabilizing effect on Bendamustine (conclusion) [4]: no significant stabilizing effect
N[C@@H](Cc1ccc(N(CCCl)CCCl)cc1)C(=O)O [Melphalan]	99.8	98.1	97.4	95.4	100	84.6	86.2	86.5	
